Like-named read-outs stand apart in the source and are kept apart here.
Assays:
[1] = test system: NRF2; assay: qPCR analysis of NRF2-regulated genes; assay type: cell-based, human; conditions: for Potential NRF2 Activation (>=2 target genes induced, by >=1.5-fold): Assay 13(p); for fold induction at 10 µM: Homo sapiens
How it was run: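 WI-38 cells treated with compound at 10 μM for 24 hrs, then processed by Cells-to-Ct for RNA isolation, RT and qPCR of NRF2-regulated genes (HMOX1, NQO1, GCLC, GSTM1). Expression normalized to B2M, PPIA and GAPDH; siRNA knockdown of FOXO3 or NRF2 (10 nM) preceded treatment in some runs.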

[2] = test system: mTOR; assay: mTOR inhibition (RPS6 phosphorylation status), In-Cell Western; assay type: cell-based, human
How it was run: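 WI-38 cells exposed to compounds at 5, 10 and 20 μM for 24 hrs. Fixed cells co-stained overnight at 4° C with anti-RPS and anti-pRPS6 (Ser-235/236) antibodies, then DyLight 680/800 secondaries. Phospho-RPS6 relative to total RPS6 read by near-infrared In-Cell Western imaging.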

[3] = test system: WI-38 cells; conditions: for No H2O2 stress treatment, at 10 uM (fold change): normalized ATP measurement; for Assay 1: H2O2-resistant: YES/NO, if NO, possibly due to repeated freezing/thawing of stocks
[4] = test system: PC12 cells expressing poly(Q)103-Htt-EGFP; assay: Poly(Q) toxicity & viability analysis (cellular model of Huntington's disease); assay type: cell-based, rat; conditions: for M = Huntington's poly-Q toxicity attenuation: score; for K = Huntington's poly-Q toxicity attenuation: summary score
How it was run: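 PC12 cells stably carrying inducible poly(Q)103-Htt-EGFP, whose induced expression causes aggregation and toxicity. Viability read 48 hrs later as ATP content by CellTiter-Glo.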

[5] = test system: NRF2; assay: in vitro; assay type: cell-based, human; conditions: for NRF2-dependency for H2O2-resistance, at 10 uM - with H2O2, 1st experiment: experiment 1 (1st); for NRF2-dependency for H2O2-resistance, at 10 uM - with H2O2, 2nd experiment: experiment 2 (2nd); for NRF2-dependency for H2O2-resistance, at 10 uM - with H2O2, 1st experiment / NRF2-dependency for H2O2-resistance, at 10 uM - with H2O2, 2nd experiment / NRF2-dependency for H2O2-resistance, at 10 uM (experiment 3) - with & without H2O2 / NRF2-dependency for H2O2-resistance (experiment 3) / NRF2-dependency for H2O2-resistance, 1st experiment / NRF2-dependency for H2O2-resistance, 2nd experiment / Assay 17: NRF2-dependency for H2O2-resistance: 10 uM; for NRF2-dependency for H2O2-resistance (experiment 3): with & without H2O2, NRF2 knockdown in WI-38 cells; for NRF2-dependency for H2O2-resistance (experiment 3) / NRF2-dependency for H2O2-resistance, 1st experiment / NRF2-dependency for H2O2-resistance, 2nd experiment: YES = resistance reduced by at least 50%, partial = 25% to 50%; for NRF2-dependency for H2O2-resistance, 1st experiment / NRF2-dependency for H2O2-resistance, 2nd experiment: with H2O2, NRF2 knockdown in WI-38 cells; for Assay 17: NRF2-dependency for H2O2-resistance: YES/NO; for Reduction of H2O2-resistance capacity upon NRF2 knockdown, on average: 3 of 3 experiments; for NRF2-dependency of H2O2-resistance (NRF2 siRNA knockdown): at least 2 of 3 independent experiments
[6] = 24 h, Assay 12(o), at 10 uM, qPCR, read-out: Induction of NRF2-regulated genes: HMOX1 normalized fold-change
[7] = 24 h, Assay 12(o), at 10 uM, qPCR, read-out: Induction of NRF2-regulated genes: NQO1 normalized fold-change
[8] = rounded fold change, WI-38 cells, 10 μM, 24 hrs (RP11 for Gr-1D, RP29 for Gr-4D), read-out: Summary of effects on NRF2-regulated genes: HMOX1
[9] = rounded fold change, WI-38 cells, 10 μM, 24 hrs (RP29 for Gr-4D), read-out: Summary of effects on NRF2-regulated genes: NQO1
[10] = 10 μM, 24 hrs, WI-38, read-out: Expression of at least two NRF2 target genes
[11] = 10 μM, 24 hrs, WI-38 cells, qPCR, normalized to B2M, n = 4, read-out: HMOX1 expression, normalized fold change (NRF2-regulated gene)
[12] = 10 μM, 24 hrs, WI-38 cells, qPCR, normalized to B2M, n = 4, read-out: NQO1 expression, normalized fold change (NRF2-regulated gene)
[13] = WI-38 cells, 10 μM, 24 hrs, n=4, qPCR normalized by B2M, read-out: GCLC Normalized fold change
[14] = WI-38 cells, 10 μM, 24 hrs, n=4, qPCR normalized by B2M, read-out: GSTM1 Normalized fold change
[15] = WI-38 cells, 10 μM, 24 hrs, n=4, qPCR normalized by B2M, read-out: HMOX1 Normalized fold change
[16] = WI-38 cells, 10 μM, 24 hrs, n=4, qPCR normalized by B2M, read-out: NQO1 Normalized fold change
[17] = WI-38 cells, 10 μM, (*) = compromised ability to protect cells from H2O2, could be due to stability issue
[18] = asterisks indicate the loss of the ability to protect cells from H2O2 over time
[19] = read-out: Est. ED50, dose response 0.6-20 μM, H2O2-resistance
[20] = 24 h, Assay 12(o), at 10 uM, qPCR, read-out: Induction of NRF2-regulated genes: GCLC normalized fold-change
[21] = rounded fold change, WI-38 cells, 10 μM, 24 hrs, read-out: Summary of effects on NRF2-regulated genes: GCLC
[22] = 10 μM, 24 hrs, WI-38 cells, qPCR, normalized to B2M, n = 4, read-out: GCLC expression, normalized fold change (NRF2-regulated gene)
[23] = derived from dose response curves, 0.6-20 uM, H2O2-resistance of WI-38 cells
[24] = 24 h, Assay 12(o), at 10 uM, qPCR, read-out: Induction of NRF2-regulated genes: GSTM1 normalized fold-change
[25] = rounded fold change, WI-38 cells, 10 μM, 24 hrs (RP29 for Gr-4D), read-out: Summary of effects on NRF2-regulated genes: GSTM1
[26] = 10 μM, 24 hrs, WI-38 cells, qPCR, normalized to B2M, n = 4, read-out: GSTM1 expression, normalized fold change (NRF2-regulated gene)

| SMILES | F = Potential NRF2 Activation ([1]; 2-point score) | fold induction at 10 µM [1, 7] | fold induction at 10 µM [1, 9] | fold induction at 10 µM [1, 12] | fold induction at 10 µM [1, 13] | fold induction at 10 µM [1, 14] | fold induction at 10 µM [1, 15] | fold induction at 10 µM [1, 16] | F = Potential NRF2 Activation ([1]; summary score) | G = mTOR down-regulation ([2]; 2-point score) | G = mTOR down-regulation ([2]; summary score) | H2O2-resistant [3, 17] | No H2O2 stress treatment, at 10 uM (fold change) ([3]; WI-38 cells) | H2O2-resistant [3, 18] | EC50 [3, 19] | M = Huntington's poly-Q toxicity attenuation [4] | K = Huntington's poly-Q toxicity attenuation [4] | NRF2-dependency for H2O2-resistance, at 10 uM (experiment 3) - with & without H2O2 [5] | J = NRF2-dependency for H2O2-resistance ([5]; score) | J = NRF2-dependency for H2O2-resistance ([5]; summary score) | further results |
| --- | --- | --- | --- | --- | --- | --- | --- | --- | --- | --- | --- | --- | --- | --- | --- | --- | --- | --- | --- | --- | --- |
| CCCN1C/C(=C\c2ccc(F)cc2)C(=O)/C(=C/c2ccc(F)cc2)C1 [O15] | 2 | 1.6 | 1.6 | 1.6 | 1.23 | 0.995 | 48.7 | 1.6 | 2 | 0 | 0 | YES (*) | 0.98 fold change | YES (*) | 20 µM | 0 | 0 | YES | 1 | 1 | Potential NRF2 Activation (>=2 target genes induced, by >=1.5-fold) [1]: YES; fold induction at 10 µM [1, 6]: 48.7; fold induction at 10 µM [1, 8]: 48.7; fold induction at 10 µM [1, 10]: > 1.5; fold induction at 10 µM [1, 11]: 48.7; Assay 1: H2O2-resistant [3]: YES; NRF2-dependency for H2O2-resistance, at 10 uM - with H2O2, 1st experiment [5]: 1st, YES;; NRF2-dependency for H2O2-resistance, at 10 uM - with H2O2, 2nd experiment [5]: 2nd, YES.; NRF2-dependency for H2O2-resistance (experiment 3) [5]: YES; NRF2-dependency for H2O2-resistance, 1st experiment [5]: YES;; NRF2-dependency for H2O2-resistance, 2nd experiment [5]: YES.; Assay 17: NRF2-dependency for H2O2-resistance [5]: YES; Reduction of H2O2-resistance capacity upon NRF2 knockdown, on average [5]: ~90%; NRF2-dependency of H2O2-resistance (NRF2 siRNA knockdown) [5]: significantly attenuate |
| [O-][n+]1onc2c3nsnc3c(Br)cc21 [O17] | 0 | 1.47 | 1.47 | 1.47 | 1.35 | 1.12 | 1.08 | 1.47 | 0 | 0 | 0 | YES | 1.06 fold change | YES | 8.5 µM | 0 | 0 |  | 0 | 0 | Induction of at least two NRF2-regulated genes (HMOX1, NQO1, GCLC, GSTM1) ([1]; 10 μM, 24 hrs, WI-38): could induce expression of at least two genes; fold induction at 10 µM [1, 20]: 1.36; fold induction at 10 µM [1, 21]: 1.36; fold induction at 10 µM [1, 22]: 1.36; EC50 [3, 23]: 8.5 µM |
| Cc1cc(C)c(C(=O)/C=C/c2ccccc2F)c(O)n1 [O18] | 2 | 2.94 | 2.94 | 2.94 | 2.1 | 1.52 | 23.8 | 2.94 | 2 | 0 | 0 | YES | 0.99 fold change | YES | 9.8 µM | 0 | 0 | YES | 1 | 1 | Potential NRF2 Activation (>=2 target genes induced, by >=1.5-fold) [1]: YES; fold induction at 10 µM [1, 20]: 2.1; fold induction at 10 µM [1, 24]: 1.52; fold induction at 10 µM [1, 6]: 23.8; fold induction at 10 µM [1, 8]: 23.8; fold induction at 10 µM [1, 25]: 1.52; fold induction at 10 µM [1, 21]: 2.1; fold induction at 10 µM [1, 10]: > 1.5; fold induction at 10 µM [1, 22]: 2.1; fold induction at 10 µM [1, 26]: 1.52; fold induction at 10 µM [1, 11]: 23.8; Assay 1: H2O2-resistant [3]: YES; EC50 [3, 23]: 9.8 µM; NRF2-dependency for H2O2-resistance, at 10 uM - with H2O2, 2nd experiment [5]: 2nd, partial.; NRF2-dependency for H2O2-resistance (experiment 3) [5]: YES; NRF2-dependency for H2O2-resistance, 2nd experiment [5]: partial.; Assay 17: NRF2-dependency for H2O2-resistance [5]: YES; NRF2-dependency of H2O2-resistance (NRF2 siRNA knockdown) [5]: significantly attenuate |
| COC(=O)CCc1sc2c(c1[N+](=O)[O-])NC(=O)CCC2 [O20] | 2 | 2.49 | 2.49 | 2.49 | 1.76 | 1.36 | 0.937 | 2.49 | 2 | 0 | 0 | YES | 1.12 fold change | YES | 12.9 µM | 0 | 0 | YES | 1 | 1 | Potential NRF2 Activation (>=2 target genes induced, by >=1.5-fold) [1]: YES; fold induction at 10 µM [1, 20]: 1.76; fold induction at 10 µM [1, 21]: 1.76; fold induction at 10 µM [1, 10]: > 1.5; fold induction at 10 µM [1, 22]: 1.76; Assay 1: H2O2-resistant [3]: YES; EC50 [3, 23]: 12.9 µM; NRF2-dependency for H2O2-resistance, at 10 uM - with H2O2, 1st experiment [5]: 1st, YES;; NRF2-dependency for H2O2-resistance, at 10 uM - with H2O2, 2nd experiment [5]: 2nd, YES.; NRF2-dependency for H2O2-resistance (experiment 3) [5]: YES; NRF2-dependency for H2O2-resistance, 1st experiment [5]: YES;; NRF2-dependency for H2O2-resistance, 2nd experiment [5]: YES.; Assay 17: NRF2-dependency for H2O2-resistance [5]: YES; Reduction of H2O2-resistance capacity upon NRF2 knockdown, on average [5]: ~90%; NRF2-dependency of H2O2-resistance (NRF2 siRNA knockdown) [5]: significantly attenuate |
| COc1ccc(/C=C2\SC(=N)N(c3nccs3)C2=O)cc1 [O21] | 0 |  |  |  | 0.512 | 1.25 | 3.02 | 0.836 | 0 | 0 | 0 | YES | 0.92 fold change | YES | 18.1 µM | 0 | 0 | YES | 1 | 1 | fold induction at 10 µM [1, 20]: 0.51; fold induction at 10 µM [1, 24]: 1.25; fold induction at 10 µM [1, 6]: 3.02; fold induction at 10 µM [1, 8]: 3.02; fold induction at 10 µM [1, 25]: 1.25; fold induction at 10 µM [1, 21]: 0.51; fold induction at 10 µM [1, 22]: 0.51; fold induction at 10 µM [1, 26]: 1.25; fold induction at 10 µM [1, 11]: 3.02; EC50 [3, 23]: 18.1 µM; NRF2-dependency for H2O2-resistance, at 10 uM - with H2O2, 1st experiment [5]: 1st, partial;; NRF2-dependency for H2O2-resistance (experiment 3) [5]: YES; NRF2-dependency for H2O2-resistance, 1st experiment [5]: partial;; Assay 17: NRF2-dependency for H2O2-resistance [5]: YES |
